{
  "source": "patent US10266549B2",
  "about": "“ULK1 inhibitors and methods using same” (SALK INSTITUTE FOR BIOLOGICAL STUDIES, priority 2014, dated 2019)",
  "key": {"[1]": {"test_system": "PC3 human prostate cells stably expressing GFP-LC3", "assay": "GFP-LC3 puncta quantification in PC3 cells", "assay_type": "cell-based", "details": "PC3 GFP-LC3, control siRNAs, 1 μM mTOR inhibitor for 4 hr", "description": "At 48 hr after RNAi transfection, the cells were treated with 1 μM of the catalytic mTOR inhibitors AZD8055 or INK128 for 4 hr and assessed for the presence of GFP-LC3 puncta. The average number of GFPLC3 puncta and SD for each siRNA and drug treatment are shown. SRC, c-Src; c-Src kinase, CSK.\nTo test the ability of compound 14 to block autophagy and cell survival, initial studies were performed in A549 lung cancer cells, which are highly sensitive to mTOR inhibition. […] Next, we genetically assessed the requirement for ULK1 versus other kinases inhibited by compound 14 to induce autophagy after pharmacological mTOR inhibition. A robust high-throughput microscopy method for quantifying GFP-LC3 puncta was established using a PC3 prostate-cancer cell line stably expressing a GFP-LC3 construct. Using this assay, we performed a focused RNAi analysis of the top 20 kinases identified in the DiscovRx screen as best binding to compound 14. […] Strikingly, of the 18 kinases tested, only one kinase siRNA, ULK1, nearly fully abolished the LC3 puncta induced by the mTOR inhibitors (FIG. 9D)."}, "[2]": {"test_system": "A549 lung cancer cells", "assay": "AnnexinV apoptosis analysis in A549 cells with mTOR inhibitor", "assay_type": "cell-based", "details": "AZD8055 alone, 1 micromolar", "description": "A549 cells (ATCC #CCL185) and MEFs were seeded at a concentration of 2.5×10^5 cells/mL (i.e., 750,000 cells per 6 cm dish), grown overnight (18 hrs) and treated as indicted in the figure legends. Unless otherwise indicated, “starvation” is EBSS and “control” is DMEM with full serum for indicated timepoints. Samples for western blot were washed once in 1× ice cold PBS and lysed in boiling SDS lysis buffer (10 mM Tris […], 100 mM NaCl, 1% SDS). After trituration, lysates were equilibrated for protein levels using the BCA method (Pierce) and resolved on 8 to 15% SDS-PAGE gels, depending on the size of the protein. PVDF membranes were probed with indicated antibodies overnight according to the manufacturers instructions.\nFor flow cytometry analysis, cells were collected at the appropriate time point, washed once in PBS, trypsinized and pelleted. For Annexin V staining, cells were washed in 1× Annexin V buffer and treated as described by the Annexin V staining protocol (BD Pharmingen, San Diego, Calif.). Briefly, cells were resuspended in Annexin V buffer to a concentration of one million per mL, 100,000 cells were then stained with 5 μL of phycoerythrin (PE)-conjugated Annexin V antibody (BD Pharmingen, San Diego, Calif.) and 5 μL of 7-amino-actinomycin D (7AAD) and then incubated at room temperature for 15 minutes. 400 μL of Annexin V buffer was then added to each sample with gentle mixing. Stained cells were analyzed using a FACScan flow cytometer (Becton Dickinson, San Jose, Calif.). Flow cytometry data was analyzed using FlowJo 8.6 software (Tree Star Inc., Ashland, Oreg.).\nThere has been great interest in the role of autophagy in the survival of tumor cells, particular tumor cells faced with metabolic stress from chemotherapies or targeted therapeutics. We next examined whether compound 14 would promote apoptosis in tumor cells similar to the MEFs, selectively under conditions in which autophagy is actively engaged. […] Given that mTOR activity is a dominant regulator of ULK1 activity, and we previously noted that treatment of cells with mTOR catalytic inhibitors was sufficient to induce ULK1 activity, we examined the effect of adding in the ULK1 inhibitor in the context of treatment with mTOR catalytic inhibitors. Using a cell line well-established to be sensitive to mTORC1 inhibition, A549 lung cancer cells, we treated with escalating doses of ULK1 inhibitor while keeping a constant cytostatic growth arrest-inducing 1 micromolar dose of the mTOR catalytic inhibitor AZD8055. We observed that 5 μM compound 14 in combination with AZD8055 triggered apoptosis in 22% of A549 cells compared to 9% of the 5 μM compound 14 alone or 6% of those cells treated with AZD8055 alone. […]"}},
  "data": [
    {"smiles": "COc1ccc(-c2ccc3c(N4CCOC[C@@H]4C)nc(N4CCOC[C@@H]4C)nc3n2)cc1CO", "note": "[AZD8055, (5-(2,4-bis((S)-3-methylmorpholino)pyrido[2,3-d]pyrimidin-7-yl)-2-methoxyphenyl)methanol, reference compound]", "values": [
      {"measurement": "induction in GFP-LC3 puncta formation", "setting": "[1]", "result": 2, "unit": "fold"},
      {"measurement": "apoptosis, % of A549 cells", "setting": "[2]", "result": 6, "unit": "%"}
    ]}
  ]
}
